From patent publication US20260062422A1 (Halda Therapeutics OpCo, Inc., priority 2022, published 2026)

Key:
[1] = tested on: T47D cells; assay: Cellular growth inhibition assay for T47D cells, CellTiter-Glo; type: cell-based, human; details: Homo sapiens, T47D, 72 h, 72 hours treatment, CellTiter-Glo 2.0 cell viability
Procedure, shortened: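 Luminescence from CellTiter-Glo 2.0 after 72 h of compound exposure gives the viability signal. Cells grew in insulin-supplemented (0.2 units/mL) DMEM with 10% FBS and were treated one day after seeding at 0.5% DMSO. GI50 values come from four-parameter nonlinear regression.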

[2] = tested on: T-Rex 293 cell line SC3 cells having increased expression of androgen receptor protein due to exposure to doxycycline; assay: Cellular growth inhibition, T-Rex 293 SC3 cells with doxycycline (androgen receptor induced), CellTiter-Glo; type: cell-based; details: 72 h, T-Rex 293 SC3 cells with 10 ng/mL doxycycline (increased androgen receptor expression)
Procedure, shortened: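 Doxycycline-inducible androgen receptor T-Rex 293 clone SC3, seeded at 2500/well in phenol red-free DMEM with 10% charcoal-dextran FBS, without doxycycline or with 10 ng/mL to induce receptor. Compound added after 24 h (0.5% DMSO), 72 h at 37 °C; CellTiter-Glo 2.0 luminescence, GI50 by four-parameter fit.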

| GI50 [1] [nM] | SMILES | GI50 [2] [nM] |
| --- | --- | --- |
| 500 to 1500 | CCNC(=O)C[C@@H]1N=C(c2ccc(N(C)CC3CN(c4ncc(C(=O)N[C@H]5C(C)(C)[C@H](Oc6ccc(C#N)c(Cl)c6)C5(C)C)cn4)C3)cc2)c2c(sc(C)c2C)-n2c(C)nnc21 [Compound I-107] | < 500 |
| < 500 | Cc1sc2c(c1C)C(c1ccc(Cl)cc1)=N[C@@H](CC(=O)NCCOCCOCCOC1CCN(c3ncc(C(=O)N[C@H]4C(C)(C)[C@H](Oc5ccc(C#N)c(Cl)c5)C4(C)C)cn3)CC1)c1nnc(C)n1-2 [Compound I-7] | < 500 |
| < 500 | Cc1sc2c(c1C)C(c1ccc(CC3CC(C4CCN(c5ncc(C(=O)N[C@H]6C(C)(C)[C@H](Oc7ccc(C#N)c(Cl)c7)C6(C)C)cn5)CC4)C3)cc1)=NC(Cc1ncco1)c1nnc(C)n1-2 (some centres unmarked) [Compound I-136] | < 500 |
| < 500 | CCNC(=O)C[C@@H]1N=C(c2ccc(N3CC(N(C)C4CN(c5ncc(C(=O)N[C@H]6C(C)(C)[C@H](Oc7ccc(C#N)c(Cl)c7)C6(C)C)cn5)C4)C3)cc2)c2c(sc(C)c2C)-n2c(C)nnc21 [Compound I-121] | < 500 |
| 500 to 1500 | Cc1sc2c(c1C)C(c1ccc(OC3CC4(CCN(c5ncc(C(=O)N[C@H]6C(C)(C)[C@H](Oc7ccc(C#N)c(Cl)c7)C6(C)C)cn5)CC4)C3)cc1)=NC(Cc1ncco1)c1nnc(C)n1-2 (some centres unmarked) [Compound I-166] | < 500 |
| < 500 | Cc1sc2c(c1C)C(c1ccc(C#CC3CC4(CCN(c5ncc(C(=O)N[C@H]6C(C)(C)[C@H](Oc7ccc(C#N)c(Cl)c7)C6(C)C)cn5)CC4)C3)cc1)=N[C@@H](Cc1ncco1)c1nnc(C)n1-2 [Compound I-267] | < 500 |
| 500 to 1500 | CCNC(=O)C[C@@H]1N=C(c2ccc(OCCOC3CCN(c4ncc(C(=O)N[C@H]5C(C)(C)[C@H](Oc6ccc(C#N)c(Cl)c6)C5(C)C)cn4)CC3)c(F)c2)c2c(sc(C)c2C)-n2c(C)nnc21 [Compound I-76] | < 500 |
| 500 to 1500 | CCNC(=O)C[C@@H]1N=C(c2ccc(OCCOCCOC3CCN(c4ncc(C(=O)N[C@H]5C(C)(C)[C@H](Oc6ccc(C#N)c(Cl)c6)C5(C)C)cn4)CC3)cc2)c2c(sc(C)c2C)-n2c(C)nnc21 [Compound I-44] | < 500 |
| < 500 | Cc1sc2c(c1C)C(c1ccc(OC3CC4(C3)CC3(CCN(c5ncc(C(=O)N[C@H]6C(C)(C)[C@H](Oc7ccc(C#N)c(Cl)c7)C6(C)C)cn5)CC3)C4)cc1)=N[C@@H](Cc1ncco1)c1nnc(C)n1-2 [Compound I-283] | < 500 |
| < 500 | Cc1sc2c(c1C)C(c1ccc(CC3CN(CC4CCN(c5ncc(C(=O)N[C@H]6C(C)(C)[C@H](Oc7ccc(C#N)c(Cl)c7)C6(C)C)cn5)CC4)C3)cc1)=N[C@@H](Cc1ncco1)c1nnc(C)n1-2 [Compound I-153] | < 500 |
| 500 to 1500 | CCNC(=O)C[C@@H]1N=C(c2ccc(OCCOC3CCN(c4ncc(C(=O)N[C@H]5C(C)(C)[C@H](Oc6ccc(C#N)c(Cl)c6)C5(C)C)cn4)CC3)cc2)c2c(sc(C)c2C)-n2c(C)nnc21 [Compound I-60, N-((1r,3r)-3-(3-chloro-4-cyanophenoxy)-2,2,4,4-tetramethylcyclobutyl)-2-(4-(2-(4-((S)-6-(2-(ethylamino)-2-oxoethyl)-2,3,9-trimethyl-6H-thieno[3,2-f][1,2,4]triazolo[4,3-a][1,4]diazepin-4-yl)phenoxy)ethoxy)piperidin-1-yl)pyrimidine-5-carboxamide] | < 500 |
| < 500 | Cc1sc2c(c1C)C(c1ccc(CCCOC3CCN(c4ncc(C(=O)N[C@H]5C(C)(C)[C@H](Oc6ccc(C#N)c(Cl)c6)C5(C)C)cn4)CC3)cc1)=N[C@@H](CC(=O)NC1CC1)c1nnc(C)n1-2 [Compound I-102] | < 500 |
| < 500 | CCNC(=O)C[C@@H]1N=C(c2ccc(CCCC3CCN(c4ncc(C(=O)N[C@H]5C(C)(C)[C@H](Oc6ccc(C#N)c(Cl)c6)C5(C)C)cn4)CC3)cc2)c2c(sc(C)c2C)-n2c(C)nnc21 [Compound I-95] | < 500 |
| > 3000 | Cc1sc2c(c1C)C(c1ccc(C#CCN3CCN(c4ncc(C(=O)N[C@H]5C(C)(C)[C@H](Oc6ccc(C#N)c(Cl)c6)C5(C)C)cn4)CC3)cc1)=N[C@@H](CC(=O)OC(C)(C)C)c1nnc(C)n1-2 [Compound I-55] | < 500 |
| 500 to 1500 | CCNC(=O)C[C@@H]1N=C(c2ccc(OCCCN(C)c3ncc(C(=O)N[C@H]4C(C)(C)[C@H](Oc5ccc(C#N)c(Cl)c5)C4(C)C)cn3)cc2)c2c(sc(C)c2C)-n2c(C)nnc21 [Compound I-81] | < 500 |
| 500 to 1500 | CCNC(=O)C[C@@H]1N=C(c2ccc(C#CCN3CCN(c4ncc(C(=O)N[C@H]5C(C)(C)[C@H](Oc6ccc(C#N)c(Cl)c6)C5(C)C)cn4)CC3)cc2)c2c(sc(C)c2C)-n2c(C)nnc21 [Compound I-54, N-[3-(3-chloro-4-cyano-phenoxy)-2,2,4,4-tetramethyl-cyclobutyl]-2-[4-[3-[4-[(9S)-9-[2-(ethylamino)-2-oxo-ethyl]-4,5,13-trimethyl-3-thia-1,8,11,12-tetrazatricyclo[8.3.0.02,6]trideca-2(6),4,7,10,12-pentaen-7-yl]phenyl]prop-2-ynyl]piperazin-1-yl]pyrimidine-5-carboxamide] | < 500 |
| < 500 | Cc1sc2c(c1C)C(c1ccc(CCCOC3CCN(c4ncc(C(=O)N[C@H]5C(C)(C)[C@H](Oc6ccc(C#N)c(Cl)c6)C5(C)C)cn4)CC3)cc1)=N[C@@H](C)c1nnc(C)n1-2 [Compound I-228, N-[3-(3-chloro-4-cyano-phenoxy)-2,2,4,4-tetramethyl-cyclobutyl]-2-[4-[3-[4-[(9S)-4,5,9,13-tetramethyl-3-thia-1,8,11,12-tetrazatricyclo [8.3.0.02,6]trideca-2(6),4,7,10,12-pentaen-7-yl]phenyl]propoxy]-1-piperidyl]pyrimidine-5-carboxamide] | < 500 |
| < 500 | Cc1sc2c(c1C)C(c1ccc(C3CC3C3CC4(CCN(c5ncc(C(=O)N[C@H]6C(C)(C)[C@H](Oc7ccc(C#N)c(Cl)c7)C6(C)C)cn5)CC4)C3)cc1)=N[C@@H](Cc1ncco1)c1nnc(C)n1-2 (some centres unmarked) [Compound I-237] | < 500 |
| < 500 | Cc1sc2c(c1C)C(c1ccc(Cl)cc1)=N[C@@H](CC(=O)NCCCN1CCN(CC3CCN(c4ncc(C(=O)N[C@H]5C(C)(C)[C@H](Oc6ccc(C#N)c(Cl)c6)C5(C)C)cn4)CC3)CC1)c1nnc(C)n1-2 [Compound I-36, N-((1r,3r)-3-(3-chloro-4-cyanophenoxy)-2,2,4,4-tetramethylcyclobutyl)-2-(4-((4-(3-(2-((S)-4-(4-chlorophenyl)-2,3,9-trimethyl-6H-thieno[3,2-f][1,2,4]triazolo[4,3-a][1,4]diazepin-6-yl)acetamido)propyl)piperazin-1-yl)methyl)piperidin-1-yl)pyrimidine-5-carboxamide] | 500 to 1500 |
| < 500 | Cc1sc2c(c1C)C(c1ccc(Cl)cc1)=N[C@@H](CC(=O)NCCN(C)c1ncc(C(=O)N[C@H]3C(C)(C)[C@H](Oc4ccc(C#N)c(Cl)c4)C3(C)C)cn1)c1nnc(C)n1-2 [Compound I-1, N-[3-(3-chloro-4-cyano-phenoxy)-2,2,4,4-tetramethyl-cyclobutyl]-2-[2-[[2-[(9S)-7-(4-chlorophenyl)-4,5,13-trimethyl-3-thia-1,8,11,12-tetrazatricyclo[8.3.0.02,6]trideca-2(6),4,7,10,12-pentaen-9-yl]acetyl]amino]ethyl-methyl-amino]pyrimidine-5-carboxamide] | 1500 to 3000 |
| 500 to 1500 | Cc1sc2c(c1C)C(c1ccc(Cl)cc1)=N[C@H](CC(=O)NCCOCCOCCOCCOCCOC1CCN(c3ncc(C(=O)N[C@H]4C(C)(C)[C@H](Oc5ccc(C#N)c(Cl)c5)C4(C)C)cn3)CC1)c1nnc(C)n1-2 [Compound I-14] | > 3000 |
| 500 to 1500 | CCNC(=O)C[C@@H]1N=C(c2ccc(OCCOC3CCN(c4ncc(C(=O)N[C@H]5C(C)(C)[C@H](Oc6ccc(C#N)c(Cl)c6)C5(C)C)cn4)CC3)c(F)c2F)c2c(sc(C)c2C)-n2c(C)nnc21 [Compound I-73] | < 500 |
| 500 to 1500 | Cc1sc2c(c1C)C(c1ccc(OCCOC3CCN(c4ncc(C(=O)N[C@H]5C(C)(C)[C@H](Oc6ccc(C#N)c(Cl)c6)C5(C)C)cn4)CC3)cc1)=N[C@@H](CC(=O)O)c1nnc(C)n1-2 [Compound I-38] | 500 to 1500 |
| < 500 | Cc1sc2c(c1C)C(c1ccc(O[C@H]3CC[C@@]4(CCCN(c5ncc(C(=O)N[C@H]6C(C)(C)[C@H](Oc7ccc(C#N)c(Cl)c7)C6(C)C)cn5)C4)CC3)cc1)=N[C@@H](Cc1ncco1)c1nnc(C)n1-2 [Compound I-172] | < 500 |
| < 500 | Cc1sc2c(c1C)C(c1ccc(CCCOC3CCN(c4ncc(C(=O)N[C@H]5C(C)(C)[C@H](Oc6ccc(C#N)c(Cl)c6)C5(C)C)cn4)CC3)cc1)=N[C@@H](Cc1ncco1)c1nnc(C)n1-2 [Compound I-131, N-[3-(3-chloro-4-cyano-phenoxy)-2,2,4,4-tetramethyl-cyclobutyl]-2-[4-[3-[4-[(9S)-4,5,13-trimethyl-9-(oxazol-2-ylmethyl)-3-thia-1,8,11,12-tetrazatricyclo[8.3.0.02,6]trideca-2(6),4,7,10,12-pentaen-7-yl]phenyl]propoxy]-1-piperidyl]pyrimidine-5-carboxamide] | < 500 |
